A word on the IC50: it is the concentration that inhibits the measured activity by half.

IC50 data for 22 compounds are collected here from patent publication US11512090B2, “Muscarinic acetylcholine M1 receptor antagonists” (PIPELINE THERAPEUTICS, INC., priority 2018, dated 2022).

Holding throughout (type): cell-based
One test addresses M3 (Homo sapiens, UniProt P20309). The test is described as follows: In vitro functional assay of muscarinic acetylcholine receptor activity, M3. The conditions noted are these: antagonist IC50 at M3; read-out: M3 IC50.
For a further test, the target named is T1, M2 (Homo sapiens, UniProt P08172).
T1 sequence (P08172 1-466): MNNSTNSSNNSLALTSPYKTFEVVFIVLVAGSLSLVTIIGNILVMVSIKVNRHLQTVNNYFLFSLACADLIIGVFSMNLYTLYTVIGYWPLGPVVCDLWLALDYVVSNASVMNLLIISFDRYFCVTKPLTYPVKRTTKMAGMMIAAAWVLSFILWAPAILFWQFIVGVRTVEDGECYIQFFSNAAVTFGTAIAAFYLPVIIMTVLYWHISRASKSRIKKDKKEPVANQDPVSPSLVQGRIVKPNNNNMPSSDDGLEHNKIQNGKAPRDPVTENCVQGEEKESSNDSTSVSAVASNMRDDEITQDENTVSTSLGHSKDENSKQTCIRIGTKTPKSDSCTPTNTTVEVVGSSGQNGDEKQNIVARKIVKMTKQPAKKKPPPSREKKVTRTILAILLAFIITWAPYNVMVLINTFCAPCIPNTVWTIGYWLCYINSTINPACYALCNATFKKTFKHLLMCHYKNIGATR
The test is described as follows: In vitro functional assay of muscarinic acetylcholine receptor activity, M2.

The target of the next test is T2, human M1 receptor (Homo sapiens, UniProt P11229).
T2 sequence (P11229 1-460): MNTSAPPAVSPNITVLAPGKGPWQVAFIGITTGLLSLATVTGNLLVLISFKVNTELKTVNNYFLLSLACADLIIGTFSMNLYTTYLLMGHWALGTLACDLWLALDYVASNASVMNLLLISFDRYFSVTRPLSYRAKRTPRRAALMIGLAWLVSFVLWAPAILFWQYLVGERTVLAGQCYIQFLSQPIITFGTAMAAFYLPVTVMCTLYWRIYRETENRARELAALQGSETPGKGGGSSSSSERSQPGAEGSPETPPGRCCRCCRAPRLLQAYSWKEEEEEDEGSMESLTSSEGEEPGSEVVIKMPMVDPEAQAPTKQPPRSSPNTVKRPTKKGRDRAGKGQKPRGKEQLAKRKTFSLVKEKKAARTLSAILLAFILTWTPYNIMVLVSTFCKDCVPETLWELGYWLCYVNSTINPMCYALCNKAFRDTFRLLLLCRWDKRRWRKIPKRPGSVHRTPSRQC
Put plainly: In vitro functional assay of muscarinic acetylcholine receptor activity (aequorin calcium flux, antagonist mode vs EC80 acetylcholine), M1. An outline of the steps:
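CHO-K1 cells stably co-expressing human M1 and aequorin were loaded with 5 uM coelenterazine h for 4 h at room temperature in the dark. IC50 came from the drop in luminescence.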
In general terms: Calcium assays in cells follow changes in intracellular calcium, usually with a dye or a luminescent sensor.

[1] abbreviates: antagonist IC50 at M2, read-out: M2 IC50.
[2] abbreviates: CHO-K1 cells stably expressing human M1 receptor with Aequorin, decrease in EC80 acetylcholine response, read-out: M1 IC50.

Read-outs that look alike come from different tables or passages of the source.

M3, sequence (P20309 whole entry): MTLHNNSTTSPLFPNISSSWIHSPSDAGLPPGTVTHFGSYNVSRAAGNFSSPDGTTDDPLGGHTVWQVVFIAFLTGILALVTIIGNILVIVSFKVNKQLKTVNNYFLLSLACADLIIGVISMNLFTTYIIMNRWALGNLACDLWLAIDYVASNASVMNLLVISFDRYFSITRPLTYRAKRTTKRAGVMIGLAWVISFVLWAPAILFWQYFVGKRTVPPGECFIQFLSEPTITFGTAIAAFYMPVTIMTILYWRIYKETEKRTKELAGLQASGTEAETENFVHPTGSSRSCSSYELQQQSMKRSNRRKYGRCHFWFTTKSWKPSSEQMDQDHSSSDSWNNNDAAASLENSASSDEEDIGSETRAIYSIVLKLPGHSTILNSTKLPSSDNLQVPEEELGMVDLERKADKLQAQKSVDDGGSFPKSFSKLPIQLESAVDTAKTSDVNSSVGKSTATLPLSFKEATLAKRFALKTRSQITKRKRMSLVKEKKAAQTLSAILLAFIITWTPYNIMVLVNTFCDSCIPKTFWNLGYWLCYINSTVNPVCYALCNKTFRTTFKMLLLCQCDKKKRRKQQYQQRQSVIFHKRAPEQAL

`COc1cnc2cccc(CNCC(=O)N3C[C@H]4CC[C@@H](C3)N4c3ccncc3F)c2c1` [Example 71, 1-((1R,5S)-8-(3-fluoropyridin-4-yl)-3,8-diazabicyclo[3.2.1]octan-3-yl)-2-(((3-methoxyquinolin-5-yl)methyl)amino)ethan-1-one]: the figures for the IC50 on M3, against M2 and at human M1 receptor were 1 to 10 µM, 0.1 to 1 µM and 0.1 to 1 µM, respectively.
Consider `Cc1nc2cccc(CNCC(=O)N3C[C@H]4CC[C@@H](C3)N4c3ccncc3F)c2o1` [Example 72, 1-((1R,5S)-8-(3-fluoropyridin-4-yl)-3,8-diazabicyclo[3.2.1]octan-3-yl)-2-(((2-methylbenzo[d]oxazol-7-yl)methyl)amino)ethan-1-one], for which the IC50 is above 10 µM at M3, 1 to 10 µM at M2 (setting [1]) and 0.1 to 1 µM on human M1 receptor.
For the compound `Cc1nc2cccc(CCCC(=O)N3CCN(c4ccncc4F)CC3)c2o1` [Example 73, 1-(4-(3-fluoropyridin-4-yl)piperazin-1-yl)-4-(2-methylbenzo[d]oxazol-7-yl)butan-1-one], the IC50 at M3 is above 10 µM; at M2 (setting [1]), 1 to 10 µM; at human M1 receptor (setting [2]), 0.1 to 1 µM.
The matching figures for `COc1cnc2cccc(CCCC(=O)N3CCN(c4ccncc4F)CC3)c2c1` [Example 74, 1-(4-(3-fluoropyridin-4-yl)piperazin-1-yl)-4-(3-methoxyquinolin-5-yl)butan-1-one]: above 10 µM, above 10 µM and 1 to 10 µM.
`O=C(COCc1cccc2nccn12)N1C[C@H]2CC[C@@H](C1)N2c1ccncc1F` [Example 75, 1-((1R,5S)-8-(3-fluoropyridin-4-yl)-3,8-diazabicyclo[3.2.1]octan-3-yl)-2-(imidazol[1,2-a]pyridin-5-ylmethoxy)ethan-1-one]: the IC50 on M3 was above 10 µM; at M2 (setting [1]), 1 to 10 µM; on human M1 receptor (setting [2]), 1 to 10 µM.
On to `COc1cnc2cccc(COCCC(=O)N3C[C@H]4CC[C@@H](C3)N4c3ccncc3F)c2c1` [Example 76, 1-((1R,5S)-8-(3-fluoropyridin-4-yl)-3,8-diazabicyclo[3.2.1]octan-3-yl)-3-((3-methoxyquinolin-5-yl)methoxy)propan-1-one], for which the values for the IC50 on M3, at M2 (setting [1]) and at human M1 receptor were 1 to 10 µM, 1 to 10 µM and below 0.1 µM, respectively.
As for `C[C@@H]1CN(c2ccncc2Cl)CCN1C(=O)CCCc1cccc2ncccc12` [Example 77, (R)-1-(4-(3-chloropyridin-4-yl)-2-methylpiperazin-1-yl)-4-(quinolin-5-yl)butan-1-one], the IC50 on M3 is 1 to 10 µM; on M2 (setting [1]), 1 to 10 µM; on human M1 receptor (setting [2]) it was below 0.1 µM.
As for `Cc1ccncc1N1CCN(C(=O)CCCc2cccc3ncccc23)[C@H](C)C1` [Example 78, (R)-1-(2-methyl-4-(4-methylpyridin-3-yl)piperazin-1-yl)-4-(quinolin-5-yl)butan-1-one], the IC50 on M3 is 1 to 10 µM; on M2 (setting [1]) it was 1 to 10 µM; on human M1 receptor (setting [2]), below 0.1 µM.
For the compound `Cc1cc(Cl)cnc1N1CCN(C(=O)CCCc2cccc3ncccc23)[C@H](C)C1` [Example 79, (R)-1-(4-(5-chloro-3-methylpyridin-2-yl)-2-methylpiperazin-1-yl)-4-(quinolin-5-yl)butan-1-one], the IC50 was 0.1 to 1 µM at M3, below 0.1 µM on M2 (setting [1]) and below 0.1 µM on human M1 receptor (setting [2]).
`Cc1cc(F)cnc1N1CCN(C(=O)CCCc2cccc3ncsc23)[C@@H](C)C1` [Example 81, (S)-4-(benzo[d]thiazol-7-yl)-1-(4-(5-fluoro-3-methylpyridin-2-yl)-2-methylpiperazin-1-yl)butan-1-one]: the IC50 at M3 was 1 to 10 µM; at M2 (setting [1]) it was 0.1 to 1 µM; on human M1 receptor (setting [2]), below 0.1 µM.
For `Cc1cc(F)cnc1N1CCN(C(=O)CCCc2cccc3ncncc23)[C@@H](C)C1` [Example 82, (S)-1-(4-(5-fluoro-3-methylpyridin-2-yl)-2-methylpiperazin-1-yl)-4-(quinazolin-5-yl)butan-1-one], the half-inhibitory concentration (IC50) on M3 is 1 to 10 µM; at M2 (setting [1]) it was 1 to 10 µM; on human M1 receptor (setting [2]), below 0.1 µM.
In the case of `Cc1cc(F)cnc1N1CCN(C(=O)CCCc2cccc3nccn23)[C@@H](C)C1` [Example 84, (S)-1-(4-(5-fluoro-3-methylpyridin-2-yl)-2-methylpiperazin-1-yl)-4-(imidazo[1,2-a]pyridin-5-yl)butan-1-one], the figures for the IC50 on M3, at M2 (setting [1]) and on human M1 receptor (setting [2]) were above 10 µM, above 10 µM and 1 to 10 µM, respectively.
As to `O=C(CCOCc1cccc2ncsc12)N1C[C@H]2CC[C@@H](C1)N2c1ccncc1F` [Example 85, 3-(benzo[d]thiazol-7-ylmethoxy)-1-((1R,5S)-8-(3-fluoropyridin-4-yl)-3,8-diazabicyclo[3.2.1]octan-3-yl)propan-1-one], the 50% inhibitory concentration (IC50) on M3 was 1 to 10 µM; at M2 (setting [1]), 1 to 10 µM; at human M1 receptor, below 0.1 µM.
As for `O=C(COCc1cccc2ncsc12)N1C[C@H]2CC[C@@H](C1)N2c1ccncc1F` [Example 86, 2-(benzo[d]thiazol-7-ylmethoxy)-1-((1R,5S)-8-(3-fluoropyridin-4-yl)-3,8-diazabicyclo[3.2.1]octan-3-yl)ethan-1-one], the IC50 on M3 was above 10 µM; at M2 (setting [1]) it was 1 to 10 µM; on human M1 receptor (setting [2]) it was 1 to 10 µM.
Take `Cc1cc(F)cnc1N1CCN(C(=O)COCc2cccc3ncccc23)[C@@H](C)C1` [Example 87, (S)-1-(4-(5-fluoro-3-methylpyridin-2-yl)-2-methylpiperazin-1-yl)-2-(quinolin-5-ylmethoxy)ethan-1-one]: the concentration for half-maximal inhibition (IC50) on M3, on M2 (setting [1]) and at human M1 receptor (setting [2]) was 1 to 10 µM each time.
For the compound `Cc1cc(F)cnc1N1CCN(C(=O)COCc2cccc3ncsc23)[C@@H](C)C1` [Example 88, (S)-2-(benzo[d]thiazol-7-ylmethoxy)-1-(4-(5-fluoro-3-methylpyridin-2-yl)-2-methylpiperazin-1-yl)ethan-1-one], the values for the IC50 at M3, on M2 (setting [1]) and at human M1 receptor (setting [2]) were above 10 µM, 1 to 10 µM and 1 to 10 µM, respectively.
Regarding `Cc1cc(F)cnc1N1CCN(C(=O)CNCc2cccc3ncsc23)[C@@H](C)C1` [Example 89, (S)-2-((benzo[d]thiazol-7-ylmethyl)amino)-1-(4-(5-fluoro-3-methylpyridin-2-yl)-2-methylpiperazin-1-yl)ethan-1-one], the IC50 at M3 was above 10 µM; on M2 (setting [1]), above 10 µM; on human M1 receptor (setting [2]), 1 to 10 µM.
As to `C[C@H]1CN(c2ncc(F)cc2C#N)CCN1C(=O)CCCc1cccc2ncccc12` [Example 90, (S)-5-fluoro-2-(3-methyl-4-(4-(quinolin-5-yl)butanoyl)piperazin-1-yl)nicotinonitrile], the IC50 at M3 is above 10 µM; on M2 (setting [1]), 1 to 10 µM; on human M1 receptor (setting [2]) it was above 10 µM.
On to `C[C@H]1CN(c2ncc(F)cc2F)CCN1C(=O)CCCc1cccc2ncccc12` [Example 91, (S)-1-(4-(3,5-difluoropyridin-2-yl)-2-methylpiperazin-1-yl)-4-(quinolin-5-yl)butan-1-one], for which the IC50 on M3 was in the range of 1 to 10 µM; on M2 (setting [1]), 1 to 10 µM; at human M1 receptor (setting [2]), 0.1 to 1 µM.
In the case of `COc1cnccc1N1CCN(C(=O)CCCc2cccc3ncccc23)[C@@H](C)C1` [Example 92, (S)-1-(4-(3-methoxypyridin-4-yl)-2-methylpiperazin-1-yl)-4-(quinolin-5-yl)butan-1-one], the IC50 on M3 was 1 to 10 µM; on M2 (setting [1]), 0.1 to 1 µM; at human M1 receptor (setting [2]), below 0.1 µM.
On to `Cc1ncccc1N1CCN(C(=O)CCCc2cccc3ncccc23)[C@@H](C)C1` [Example 93, (S)-1-(2-methyl-4-(2-methylpyridin-3-yl)piperazin-1-yl)-4-(quinolin-5-yl)butan-1-one], for which the IC50 on M3, on M2 (setting [1]) and at human M1 receptor (setting [2]) was above 10 µM throughout.
Turning to `Cc1cc(F)cnc1N1CCN(C(=O)CCCc2cccc3ncc(CO)cc23)[C@@H](C)C1` [Example 94, (S)-1-(4-(5-fluoro-3-methylpyridin-2-yl)-2-methylpiperazin-1-yl)-4-(3-(hydroxymethyl)quinolin-5-yl)butan-1-one], the 50% inhibitory concentration (IC50) was 1 to 10 µM at M3, 0.1 to 1 µM at M2 (setting [1]) and 0.1 to 1 µM at human M1 receptor (setting [2]).
